In patent publication US11959083B2, “Immunosuppression-reverting oligonucleotides inhibiting the expression of CD39” (Secarna Pharmaceuticals GmbH & Co. KG, priority 2016, dated 2024):
l = locked nucleic acid (LNA); d = 2'-deoxy (DNA)

Legend:
[1] = test system: hCD39 mRNA; test: hCD39 mRNA knockdown efficacy screen in HDLM-2 cells (single dose, gymnotic delivery, QuantiGene Singleplex); assay type: cell-based, human; set-up: key to Relative hCD39 mRNA expression (compared to non-treated cells): *: values are below detection limit; conditions: 10 μM, 3 days; for Mean hCD39 mRNA expression normalized to HPRT1 relative to untreated control = 1: first screening round; for Relative hCD39 mRNA expression (compared to non-treated cells): second screening round, normalized to HPRT1; for Residual hCD39 mRNA expression relative to untreated cells (set as 1): third screening round
Experimental: (§1) FIGS. 2A to 2D depict hCD39 mRNA knockdown efficacy of hCD39 antisense oligonucleotides in human cancer cell lines HDLM-2 (human Hodgkin Lymphoma) in a first and second screening round (FIGS. 2A-1 and 2A-2) and 2B-1 and 2B-2 and A-172 (human glioblastoma) in a first and second screening round (FIGS. 2C-1 and 2C-2) and 2D-1 and 2D-2. HDLM-2 and A-172 cells were treated for 3 days with 10 μM of the respective antisense oligonucleotide. As negative control, cells were treated with neg1, an antisense oligonucleotide having the sequence CGTTTAGGCTATGTACTT (SEQ ID NO:99) (described in WO2014154843 A1). Residual hCD39 mRNA expression relative to untreated cells is depicted. Expression values were normalized to expression of the housekeeping gene HPRT1. Depicted is the mean of triplicate wells+/−SD.
(§2) FIGS. 6A-6B depicts a third screening round where further antisense oligonucleotides were designed. These antisense oligonucleotides were based on efficient antisense oligonucleotides from the first and second screening round. Therefore, hCD39 antisense oligonucleotides were tested in human cancer cell lines HDLM-2 (human Hodgkin's lymphoma) (FIG. 6A) and A-172 (human glioblastoma) (FIG. 6B). HDLM-2 and A-172 cells were treated for 3 days with 10 μM of the respective antisense oligonucleotide. […] Residual hCD39 mRNA expression relative to untreated cells (set as 1) is depicted.
(§3) In order to analyze the efficacy of hCD39 antisense oligonucleotides of the present invention with regard to the knockdown of hCD39 mRNA expression in cancer cell lines, HDLM-2 (human Hodgkin Lymphoma, DSMZ) and A-172 (human glioblastoma, ATCC) cells were treated with a single dose (concentration: 10 μM without addition of any transfection reagent; this process is called gymnotic delivery) of the respective antisense oligonucleotide as shown in FIG. 2A to 2D. hCD39 and HPRT1 mRNA expression was analyzed three days later using the QuantiGene Singleplex assay (Affymetrix) and hCD39 expression values were normalized to HPRT1 values. […] Values of the mean normalized mRNA expression of hCD39 compared to non-treated cells are listed for A-172 (Table 4 for first screening round and Table 5 for second screening round) and HDLM-2 cells (Table 6 for first screening round and Table 7 for second screening round) in the following:
(§4) For a third screening round, new antisense oligonucleotides were designed. These antisense oligonucleotides were based on efficient antisense oligonucleotides from the first screening round with modifications in length, exact position on mRNA and chemical modification pattern. Therefore, hCD39 antisense oligonucleotides were tested in human cancer cell lines (FIG. 6A, Table 10) HDLM-2 (human Hodgkin's lymphoma) and (FIG. 6B, Table 11) A-172 (human glioblastoma). HDLM-2 and A-172 cells were treated for 3 days with 10 μM of the respective antisense oligonucleotide. […] Residual hCD39 mRNA expression relative to untreated cells (set as 1) is depicted.

[2] = test system: hCD39 mRNA; test: hCD39 mRNA knockdown efficacy screen in A-172 cells (single dose, gymnotic delivery, QuantiGene Singleplex); assay type: cell-based, human; conditions: 10 μM, 3 days; for Mean hCD39 mRNA expression (relative to untreated cells set as 1): first screening round; for Mean hCD39 mRNA expression (relative to untreated cells set as 1) / Relative hCD39 mRNA expression (compared to non-treated cells): normalized to HPRT1; for Relative hCD39 mRNA expression (compared to non-treated cells): second screening round; for Residual hCD39 mRNA expression relative to untreated cells (set as 1): third screening round
Experimental: as §1, §2, §3, §4

Row | Substance | Mean hCD39 mRNA expression normalized to HPRT1 relative to untreated control = 1 [1] | Relative hCD39 mRNA expression (compared to non-treated cells) [1] | Mean hCD39 mRNA expression (relative to untreated cells set as 1) [2] | Relative hCD39 mRNA expression (compared to non-treated cells) [2] | Residual hCD39 mRNA expression relative to untreated cells (set as 1) [1] | Residual hCD39 mRNA expression relative to untreated cells (set as 1) [2]
1 | +C*+A*+T*G*T*A*G*C*C*C*A*A*A*+G*+T*+C (antisense CATGTAGCCCAAAGTC; sugars from the 5' end l3 d10 l3, all phosphorothioate, methylation of C not given here) [A04029H] | 0.03 | 0.03 | 0.45 | 0.46 | – | –
2 | +A*+A*+A*G*T*C*C*A*G*C*C*G*G*C*G*+T*+C (antisense AAAGTCCAGCCGGCGTC; sugars from the 5' end l3 d12 l2, all phosphorothioate, methylation of C not given here) [A04050H] | 0.11 | 0.90 | 0.55 | 0.28 | – | –
3 | +G*+A*C*T*A*T*G*C*T*G*A*A*C*+C*+A*+C (antisense GACTATGCTGAACCAC; sugars from the 5' end l2 d11 l3, all phosphorothioate, methylation of C not given here) [A04023H] | 0.06 | 0.06 | 0.09 | 0.10 | – | –
4 | +G*+G*+A*C*A*A*T*G*G*T*T*G*C*+T*C*+A (antisense GGACAATGGTTGCTCA; sugars from the 5' end l3 d10 l1 d1 l1, all phosphorothioate, methylation of C not given here) [A04030H] | 0.07 | 0.38 | 0.19 | 0.10 | – | –
5 | +A*+G*+C*C*T*A*T*G*A*T*G*G*C*C*+A*+C (antisense AGCCTATGATGGCCAC; sugars from the 5' end l3 d11 l2, all phosphorothioate, methylation of C not given here) [A04031H] | – | * | – | 0.55 | – | –
6 | +T*+T*+G*A*A*C*A*C*T*G*C*+G*+A*+T (antisense TTGAACACTGCGAT; sugars from the 5' end l3 d8 l3, all phosphorothioate, methylation of C not given here) [A04003H] | 0.20 | 0.20 | 0.18 | 0.18 | – | –
7 | +G*+A*+G*A*G*A*A*T*G*T*A*G*G*T*+A*C*+C (antisense GAGAGAATGTAGGTACC; sugars from the 5' end l3 d11 l1 d1 l1, all phosphorothioate, methylation of C not given here) [A04048H] | 0.05 | 0.36 | 0.09 | 0.05 | – | –
8 | +A*+T*+G*T*A*G*C*C*C*A*A*A*G*T*+C*+C (antisense ATGTAGCCCAAAGTCC; sugars from the 5' end l3 d11 l2, all phosphorothioate, methylation of C not given here) [A04028H] | 0.07 | 0.07 | 0.29 | 0.29 | – | –
9 | +G*+C*+C*T*T*G*A*A*C*A*C*T*G*C*+G*+A (antisense GCCTTGAACACTGCGA; sugars from the 5' end l3 d11 l2, all phosphorothioate, methylation of C not given here) [A04032H] | 0.06 | 0.01 | 0.19 | 0.10 | – | –
10 | +G*+A*G*T*A*C*A*A*C*T*G*A*+A*+C*+C (antisense GAGTACAACTGAACC; sugars from the 5' end l2 d10 l3, all phosphorothioate, methylation of C not given here) [A04018H] | 0.12 | 0.12 | 0.19 | 0.20 | – | –
11 | +G*+C*+C*C*T*G*A*T*G*T*T*T*G*+A*+A*+T (antisense GCCCTGATGTTTGAAT; sugars from the 5' end l3 d10 l3, all phosphorothioate, methylation of C not given here) [A04054H] | – | – | – | – | 0.13 | 0.60
12 | +T*+T*+G*C*A*G*A*G*C*A*T*T*+A*+T*+C (antisense TTGCAGAGCATTATC; sugars from the 5' end l3 d9 l3, all phosphorothioate, methylation of C not given here) [A04007H] | 0.23 | 0.23 | 0.53 | 0.53 | – | –
13 | +T*G*+T*A*G*A*G*G*C*T*C*C*C*+C*+C (antisense TGTAGAGGCTCCCCC; sugars from the 5' end l1 d1 l1 d10 l2, all phosphorothioate, methylation of C not given here) [A04006H] | 0.20 | 0.20 | 0.19 | 0.20 | – | –
14 | +A*+G*+C*G*T*A*A*G*A*T*G*T*+T*+T*+T (antisense AGCGTAAGATGTTTT; sugars from the 5' end l3 d9 l3, all phosphorothioate, methylation of C not given here) [A04012H] | 0.11 | 0.10 | 0.43 | 0.43 | – | –
15 | +T*+A*+G*T*A*A*G*C*C*C*T*G*+A*+T*+G (antisense TAGTAAGCCCTGATG; sugars from the 5' end l3 d9 l3, all phosphorothioate, methylation of C not given here) [A04055H] | – | – | – | – | 0.03 | 0.52
16 | +C*+T*+C*C*A*G*C*G*T*A*A*G*+A*+T (antisense CTCCAGCGTAAGAT; sugars from the 5' end l3 d9 l2, all phosphorothioate, methylation of C not given here) [A04002H] | – | 0.53 | – | 0.96 | – | –
